We go through 1 molecule from publication PMC10209615, “Pharmacological inhibition of LSD1 suppresses growth of hepatocellular carcinoma by inducing GADD45B” (MedComm, 2023).

In one data set the target is T1, ARK5 (Homo sapiens, UniProt O60285).
T1 construct: purchased Eurofins Pharma Discovery Services (KinaseProfiler)
The data set can be described thus: Kinase activity detection (Eurofins). The data set is classed as biochemical. The settings on record: ZY0511 1 µM. The protocol:
(§1) The activity of ZY0511 against 104 cancer‐related kinases was carried out by Eurofins Pharma Discovery Services (Celle Lévescault, France).

Another data set has as its target T2, Flt3 (D835Y) (Homo sapiens, UniProt P36888, D835Y).
T2 construct: purchased Eurofins Pharma Discovery Services
Briefly: Kinase activity detection (Eurofins). The data set is classed as biochemical. The note with it: ZY0511 1 µM, read-out: Inhibition rate. The protocol:
as §1

The next data set addresses T3, KDR (Homo sapiens, UniProt P35968).
T3 construct: purchased Eurofins Pharma Discovery Services (KinaseProfiler)
Briefly: Kinase activity detection (Eurofins). The data set is classed as biochemical. The note with it: ZY0511 1 µM, read-out: Inhibition rate. The protocol:
as §1

Another data set deals with T4, MAPK2 (Homo sapiens, UniProt P28482).
T4 construct: purchased Eurofins Pharma Discovery Services (KinaseProfiler)
T4 sequence (P28482 whole entry): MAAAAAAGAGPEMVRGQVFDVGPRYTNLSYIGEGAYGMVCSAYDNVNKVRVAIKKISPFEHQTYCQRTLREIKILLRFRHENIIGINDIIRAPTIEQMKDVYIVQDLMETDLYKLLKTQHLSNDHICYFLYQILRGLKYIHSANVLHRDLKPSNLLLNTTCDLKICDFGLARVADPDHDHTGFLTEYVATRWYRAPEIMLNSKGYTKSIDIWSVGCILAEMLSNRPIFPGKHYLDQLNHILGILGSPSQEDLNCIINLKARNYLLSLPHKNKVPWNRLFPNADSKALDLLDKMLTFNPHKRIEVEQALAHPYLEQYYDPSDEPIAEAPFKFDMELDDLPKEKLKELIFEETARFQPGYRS
Briefly: Kinase activity detection (Eurofins). The settings on record: ZY0511 1 µM, read-out: Activation rate. The data set is classed as biochemical. As to the method:
as §1

The next data set concerns the target T5, Met (Homo sapiens, UniProt P08581).
T5 construct: purchased Eurofins Pharma Discovery Services (KinaseProfiler)
The data set can be described thus: Kinase activity detection (Eurofins). The data set is classed as biochemical. The note with it: ZY0511 1 µM, read-out: Inhibition rate. As to the method: as §1

The next data set has as its target T6, NIM1 (Homo sapiens, UniProt Q8IY84).
T6 construct: purchased Eurofins Pharma Discovery Services
Briefly: Kinase activity detection (Eurofins). The data set is classed as biochemical. The settings on record: ZY0511 1 µM, read-out: Inhibition rate. As to the method: as §1

For another data set, the target named is T7, PKCµ (Homo sapiens, UniProt Q15139).
T7 construct: purchased Eurofins Pharma Discovery Services
T7 sequence (Q15139 whole entry): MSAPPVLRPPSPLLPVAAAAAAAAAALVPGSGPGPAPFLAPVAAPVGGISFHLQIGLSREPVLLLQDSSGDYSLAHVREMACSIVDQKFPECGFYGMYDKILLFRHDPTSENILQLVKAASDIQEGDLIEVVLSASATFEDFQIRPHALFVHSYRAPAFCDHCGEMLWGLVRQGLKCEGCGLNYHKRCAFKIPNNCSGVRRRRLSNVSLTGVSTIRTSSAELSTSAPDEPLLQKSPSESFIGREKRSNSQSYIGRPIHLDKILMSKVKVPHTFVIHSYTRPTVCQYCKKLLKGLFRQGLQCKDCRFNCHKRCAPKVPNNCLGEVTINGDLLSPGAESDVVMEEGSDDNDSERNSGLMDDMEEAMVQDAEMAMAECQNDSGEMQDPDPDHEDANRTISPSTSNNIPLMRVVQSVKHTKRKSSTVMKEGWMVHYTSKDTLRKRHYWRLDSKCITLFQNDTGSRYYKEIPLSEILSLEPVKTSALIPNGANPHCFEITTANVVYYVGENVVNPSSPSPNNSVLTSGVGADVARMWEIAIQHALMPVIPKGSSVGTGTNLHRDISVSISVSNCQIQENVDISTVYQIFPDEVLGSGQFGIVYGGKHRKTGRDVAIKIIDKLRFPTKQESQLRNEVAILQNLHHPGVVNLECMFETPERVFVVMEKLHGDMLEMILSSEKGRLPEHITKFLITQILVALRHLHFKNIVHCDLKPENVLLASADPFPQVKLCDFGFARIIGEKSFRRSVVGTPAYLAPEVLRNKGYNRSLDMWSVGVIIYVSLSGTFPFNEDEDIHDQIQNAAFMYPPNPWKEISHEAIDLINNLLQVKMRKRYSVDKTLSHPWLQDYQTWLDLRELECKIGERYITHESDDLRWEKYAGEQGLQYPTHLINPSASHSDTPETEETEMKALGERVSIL
The data set can be described thus: Kinase activity detection (Eurofins). The data set is classed as biochemical. The settings on record: ZY0511 1 µM, read-out: Inhibition rate. As to the method:
as §1

A further data set deals with T8, PKCι (Homo sapiens, UniProt P41743).
T8 construct: purchased Eurofins Pharma Discovery Services
T8 sequence (P41743 whole entry): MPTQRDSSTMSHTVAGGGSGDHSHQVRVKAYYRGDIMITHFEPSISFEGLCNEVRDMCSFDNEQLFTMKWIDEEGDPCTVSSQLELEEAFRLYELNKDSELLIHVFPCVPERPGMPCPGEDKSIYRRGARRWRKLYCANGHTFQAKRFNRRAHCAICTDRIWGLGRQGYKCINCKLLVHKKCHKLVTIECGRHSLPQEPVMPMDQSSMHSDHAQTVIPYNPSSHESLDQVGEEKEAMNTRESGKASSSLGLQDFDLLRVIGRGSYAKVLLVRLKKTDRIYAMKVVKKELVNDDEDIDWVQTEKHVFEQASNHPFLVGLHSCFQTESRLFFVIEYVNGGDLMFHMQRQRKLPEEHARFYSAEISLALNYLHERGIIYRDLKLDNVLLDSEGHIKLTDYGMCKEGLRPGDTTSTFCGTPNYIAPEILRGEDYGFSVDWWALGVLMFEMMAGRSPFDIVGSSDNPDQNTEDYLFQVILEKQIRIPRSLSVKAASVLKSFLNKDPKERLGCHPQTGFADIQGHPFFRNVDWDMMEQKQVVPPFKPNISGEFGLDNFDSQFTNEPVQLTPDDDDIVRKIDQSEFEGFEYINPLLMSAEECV
The data set can be described thus: Kinase activity detection (Eurofins). The data set is classed as biochemical. The settings on record: ZY0511 1 µM, read-out: Inhibition rate. The protocol: as §1

A further data set has as its target T9, cKit (V560G) (Homo sapiens, UniProt P10721, V560G).
T9 construct: purchased Eurofins Pharma Discovery Services (KinaseProfiler)
Briefly: Kinase activity detection (Eurofins). The data set is classed as biochemical. The note with it: ZY0511 1 µM, read-out: Inhibition rate. As to the method: as §1

A further data set concerns Hep3B. The data set can be described thus: MTT assay, ZY0511 and DTP3. The data set is classed as cell-based. The note with it: Homo sapiens, 96 h, read-out: Inhibition rate. As to the method:
(§2) Cell viability was determined using Cell Counting Kit‐8 (CCK8; Dojindo) or 3‐(4, 5‐dimethylthiazol‐2‐yl)‐2,5‐diphenyltetrazoliumbromide (MTT, Sigma Aldrich) assay. A selection of HCC cells was exposed to gradient concentration of ZY0511 for 96–144 h, or exposed to other LSD1 inhibitors including SP2509, GSK2879552, and ORY1001 for 144 h, or exposed to DTP3, which enhanced the apoptosis induction function of GADD45B for 96 h in combination therapy. Consequently, cell viability was determined using a microplate reader (Thermo Fisher) at 450 nm for CCK8 assay, or 570 nm for MTT assay, at different time points. The IC50 values and CI values were analyzed and calculated using GraphPad Prism 8 and CompuSyn (version 1.0; http://www.combosyn.com), respectively.

The test system of a further data set is HepG2. The data set can be described thus: MTT assay, ZY0511 and DTP3. The data set is classed as cell-based. The note with it: Homo sapiens, HepG2, 96 h, read-out: Inhibition rate. The protocol: as §2

T6 sequence (Q8IY84 whole entry, species assumed): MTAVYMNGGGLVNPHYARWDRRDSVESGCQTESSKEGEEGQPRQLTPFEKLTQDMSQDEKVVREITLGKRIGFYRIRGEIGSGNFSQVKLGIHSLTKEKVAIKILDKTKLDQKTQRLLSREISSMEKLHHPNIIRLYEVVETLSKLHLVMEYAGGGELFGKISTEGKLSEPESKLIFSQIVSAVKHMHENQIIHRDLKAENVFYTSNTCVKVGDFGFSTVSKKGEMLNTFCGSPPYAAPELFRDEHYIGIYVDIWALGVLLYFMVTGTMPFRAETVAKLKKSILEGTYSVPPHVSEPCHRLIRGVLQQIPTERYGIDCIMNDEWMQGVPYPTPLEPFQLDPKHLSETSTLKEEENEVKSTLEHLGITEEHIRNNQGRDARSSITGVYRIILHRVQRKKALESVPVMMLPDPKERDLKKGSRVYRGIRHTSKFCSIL
T5 sequence (P08581 25-1390): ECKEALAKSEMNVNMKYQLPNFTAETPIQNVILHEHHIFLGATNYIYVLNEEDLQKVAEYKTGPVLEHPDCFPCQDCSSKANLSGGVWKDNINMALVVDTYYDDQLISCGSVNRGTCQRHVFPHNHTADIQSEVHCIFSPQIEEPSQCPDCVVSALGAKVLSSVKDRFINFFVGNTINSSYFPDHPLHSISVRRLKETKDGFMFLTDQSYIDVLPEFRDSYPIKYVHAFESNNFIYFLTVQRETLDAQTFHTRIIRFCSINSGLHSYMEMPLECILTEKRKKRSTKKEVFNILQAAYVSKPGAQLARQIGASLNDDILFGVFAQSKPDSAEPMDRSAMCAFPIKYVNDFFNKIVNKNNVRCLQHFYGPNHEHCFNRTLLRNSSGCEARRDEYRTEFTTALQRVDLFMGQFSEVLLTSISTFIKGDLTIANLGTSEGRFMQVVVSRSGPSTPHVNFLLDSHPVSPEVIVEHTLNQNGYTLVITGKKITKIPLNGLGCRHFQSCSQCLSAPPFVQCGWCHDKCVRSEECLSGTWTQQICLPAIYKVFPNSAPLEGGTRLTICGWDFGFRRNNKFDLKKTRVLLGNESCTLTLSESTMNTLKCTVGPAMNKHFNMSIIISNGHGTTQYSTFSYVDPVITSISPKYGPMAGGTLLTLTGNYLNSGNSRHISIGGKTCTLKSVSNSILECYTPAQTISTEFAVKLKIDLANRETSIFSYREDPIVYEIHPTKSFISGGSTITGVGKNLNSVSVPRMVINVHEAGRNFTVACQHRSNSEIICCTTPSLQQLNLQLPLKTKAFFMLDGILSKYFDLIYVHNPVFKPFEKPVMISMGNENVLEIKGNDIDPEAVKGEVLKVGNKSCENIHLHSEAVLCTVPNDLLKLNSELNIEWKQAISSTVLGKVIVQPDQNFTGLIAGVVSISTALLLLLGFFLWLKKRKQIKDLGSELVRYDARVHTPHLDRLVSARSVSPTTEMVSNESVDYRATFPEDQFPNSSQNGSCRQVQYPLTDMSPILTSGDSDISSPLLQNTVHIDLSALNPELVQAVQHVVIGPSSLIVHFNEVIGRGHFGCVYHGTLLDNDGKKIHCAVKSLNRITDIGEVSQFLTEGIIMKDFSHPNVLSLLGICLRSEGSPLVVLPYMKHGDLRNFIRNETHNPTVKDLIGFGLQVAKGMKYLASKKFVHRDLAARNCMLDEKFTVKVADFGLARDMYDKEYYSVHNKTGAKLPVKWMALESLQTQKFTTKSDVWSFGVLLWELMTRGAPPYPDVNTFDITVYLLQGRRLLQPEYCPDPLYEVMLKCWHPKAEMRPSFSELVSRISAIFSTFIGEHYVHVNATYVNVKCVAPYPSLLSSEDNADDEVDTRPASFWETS
T3 sequence (P35968 20-1356): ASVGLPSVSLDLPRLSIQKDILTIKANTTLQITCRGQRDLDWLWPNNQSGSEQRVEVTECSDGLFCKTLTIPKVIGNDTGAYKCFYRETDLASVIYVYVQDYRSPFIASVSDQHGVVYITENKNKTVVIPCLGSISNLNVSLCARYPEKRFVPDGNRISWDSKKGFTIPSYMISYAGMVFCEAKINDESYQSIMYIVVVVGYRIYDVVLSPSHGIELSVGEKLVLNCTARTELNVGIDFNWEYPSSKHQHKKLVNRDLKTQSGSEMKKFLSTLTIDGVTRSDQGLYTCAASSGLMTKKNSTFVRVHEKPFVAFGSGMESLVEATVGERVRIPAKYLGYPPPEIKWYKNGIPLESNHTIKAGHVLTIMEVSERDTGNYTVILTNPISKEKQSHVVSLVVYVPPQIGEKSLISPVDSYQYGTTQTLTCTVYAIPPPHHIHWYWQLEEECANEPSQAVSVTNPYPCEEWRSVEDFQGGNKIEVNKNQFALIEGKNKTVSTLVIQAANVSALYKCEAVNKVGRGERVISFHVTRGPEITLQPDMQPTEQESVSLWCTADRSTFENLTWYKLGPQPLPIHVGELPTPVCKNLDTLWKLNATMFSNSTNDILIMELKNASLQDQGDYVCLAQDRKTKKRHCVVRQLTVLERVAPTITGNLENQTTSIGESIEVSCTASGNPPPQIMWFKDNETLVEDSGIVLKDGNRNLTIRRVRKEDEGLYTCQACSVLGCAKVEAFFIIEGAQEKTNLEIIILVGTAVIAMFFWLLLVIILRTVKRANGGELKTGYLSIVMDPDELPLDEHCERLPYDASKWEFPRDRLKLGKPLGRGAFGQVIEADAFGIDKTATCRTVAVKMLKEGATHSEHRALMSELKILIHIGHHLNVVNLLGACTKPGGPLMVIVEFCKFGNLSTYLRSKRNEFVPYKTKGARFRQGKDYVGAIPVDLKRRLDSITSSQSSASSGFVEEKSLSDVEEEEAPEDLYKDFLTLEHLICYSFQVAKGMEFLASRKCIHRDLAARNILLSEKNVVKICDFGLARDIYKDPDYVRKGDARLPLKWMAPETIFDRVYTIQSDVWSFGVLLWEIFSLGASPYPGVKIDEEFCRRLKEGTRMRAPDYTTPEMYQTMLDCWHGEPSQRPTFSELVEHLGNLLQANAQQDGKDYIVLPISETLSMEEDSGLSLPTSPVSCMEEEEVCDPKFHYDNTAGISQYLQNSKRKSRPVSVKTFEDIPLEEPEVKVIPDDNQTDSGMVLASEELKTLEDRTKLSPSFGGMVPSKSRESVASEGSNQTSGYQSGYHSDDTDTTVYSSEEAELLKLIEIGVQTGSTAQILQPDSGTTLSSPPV

`O=C(N/N=C1\CCc2c(Cl)ccc(O)c21)c1cccc(S(=O)(=O)N2CCOCC2)c1` [ZY0511, (E)‐N'‐(2, 3‐dihydro‐1H‐inden‐1‐ylidene) benzohydrazides] gave an Activation rate at ARK5 of 6%. Further, the inhibition (usually the drop in the measured response relative to a control, in per cent) at 1 µM at Flt3 (D835Y) worked out at 11%; on KDR it was 30%; at Met it was 20%; on NIM1 it was 2%; at PKCµ, 10%; on PKCι it was 2%. The figures for the inhibition at 1 µM at cKit (V560G), in the data set on Hep3B and in the data set with HepG2 were 7%, 49% and 79%, respectively. For the same molecule, at MAPK2, the activation at 1 µM amounted to 16%. The results for the inhibition at 0.25 µM with Hep3B and in the data set on HepG2 were 31% and 47%, respectively. The inhibition at 0.5 µM came to 42% in the data set with Hep3B and 65% in the data set with HepG2. Further, the inhibition at 2 µM with Hep3B was determined as 61%; in the data set with HepG2, 80%. The “blood routine indexes (red blood cell, white blood cell, lymph cell)” value in “Acute toxicity assay” (400 mg/kg i.p., day 14) is recorded as “did not change”. In addition, the “liver and kidney function indexes (ALT, AST, creatinine)” value in “Acute toxicity assay” (400 mg/kg i.p., day 14) was “did not change”. Besides, the “pathology of main organs (heart, liver, spleen, lung, kidney)” value in “Acute toxicity assay” (400 mg/kg i.p., day 14, H&E) is given as “No pathological abnormality”. The “no observed adverse effect level” value in the data set “Acute toxicity assay” (mice, i.p.) was found to be 400 mg/kg.
